For 22 compounds, inhibition and inhibition of growth results are on record in ChEMBL document CHEMBL4033705, “Screening for bioactive natural products from a 67-compound library of Glycyrrhiza inflata” (Bioorg Med Chem, 2017).

Test [1] has as its target Mushroom tyrosinase (Agaricus bisporus) (UniProt O42713+Q00024+C7FF04+C7FF05). In words: Inhibition of mushroom tyrosinase at 10 uM using L-tyrosine as substrate incubated for 15 mins followed by substrate addition relative to control.
For test [2], the target named is T1, Tyrosine-protein phosphatase non-receptor type 1 (Homo sapiens) (UniProt P18031).
T1 sequence (whole entry): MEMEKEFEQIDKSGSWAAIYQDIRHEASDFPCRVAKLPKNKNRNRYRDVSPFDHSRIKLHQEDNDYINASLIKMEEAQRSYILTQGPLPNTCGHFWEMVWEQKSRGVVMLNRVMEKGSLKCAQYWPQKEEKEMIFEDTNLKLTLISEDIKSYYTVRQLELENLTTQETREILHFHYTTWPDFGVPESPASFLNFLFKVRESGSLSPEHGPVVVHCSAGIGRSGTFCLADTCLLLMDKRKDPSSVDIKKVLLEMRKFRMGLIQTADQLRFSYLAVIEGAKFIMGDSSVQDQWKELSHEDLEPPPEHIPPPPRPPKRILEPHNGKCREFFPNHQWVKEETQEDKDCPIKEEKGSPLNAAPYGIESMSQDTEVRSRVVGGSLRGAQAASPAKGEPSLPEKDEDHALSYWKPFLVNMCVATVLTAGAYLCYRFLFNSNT
The test is described as follows: Inhibition of recombinant human PTP1B using p-nitrophenyl phosphate as substrate at 10 uM after 30 mins relative to control.

The next test concerns RAW264.7. The test is described as follows: Antiinflammatory activity in mouse RAW264.7 cells assessed as inhibition of LPS-induced NO production at 10 uM after 24 hrs by Griess reagent based assay relative to control. In kind it is functional. Conditions: RAW264.7, 24 h. Background: Nitrite, measured by Griess reagent, commonly stands in for NO production.
A further test has as its system HepG2. The test is described as follows: Growth inhibition of human HepG2 cells at 10 uM after 24 hrs by MTS assay relative to control. Type of test: functional. Conditions: HepG2, 24 h, read-out: GI. (Tetrazolium dyes change colour on reduction, which living cells bring about.)
Another test deals with SW480. The test is described as follows: Growth inhibition of human SW480 cells at 10 uM after 24 hrs by MTS assay relative to control. Type of test: functional. Conditions: SW480, 24 h, read-out: GI.
The next test has as its system MCF7. The test is described as follows: Growth inhibition of human MCF7 cells at 10 uM after 24 hrs by MTS assay relative to control. In kind it is functional. Conditions: MCF7, 24 h, read-out: GI.
For a further test, the species on record is Homo sapiens. The test is described as follows: Inhibition of LPS-induced NF-kappaB transcription (unknown origin) expressed in human SW480 cells at 10 uM by luciferase reporter gene assay. In kind it is cell-based.

With `CC(C)=CCc1cc([C@@H]2CC(=O)c3ccc(O)cc3O2)ccc1O` [ABYSSINONE II], the inhibition (as a rule, the change of the read-out against control, counted positive when it falls) turned out to be 4% in test [1], 5% in test [2] and 0% in the test filed under Homo sapiens. In addition, in the test on RAW264.7, the inhibition at 10 µM worked out at 8%. Also, the inhibition of growth at 10 µM was found to be 4% with HepG2, 22% in the test on SW480 and 25% in the test with MCF7.

For `CC(C)=CCc1c(O)ccc(-c2cc3ccc(O)cc3o2)c1O` [2'-O-DEMETHYLBIDWILLOL B], the inhibition was determined as 12% in test [1], 24% in test [2] and 42% in the test filed under Homo sapiens. For the same compound, the inhibition at 10 µM with RAW264.7 was 32%. Besides, the inhibition of growth at 10 µM in the test with HepG2 stood at 8%; with SW480, 36%; with MCF7, 16%.

As to `CC(C)=CCc1c(O)ccc(C(=O)/C=C/c2ccc(O)cc2)c1O` [ISOBAVACHALCONE], the values for the inhibition (in test [1]; in test [2]; in the test filed under Homo sapiens) were 14%, 73% and 0%, respectively. Also, in the test on RAW264.7, the inhibition at 10 µM is 0%. In addition, the inhibition of growth at 10 µM came to 39% with HepG2, 20% with SW480 and 16% with MCF7.

Regarding `O=C1C[C@@H](c2ccc(O)cc2)Oc2cc(O)cc(O)c21` [NARINGENIN], the inhibition in test [1] came to 10%; in test [2], 43%; in the test listed under Homo sapiens, 22%. Moreover, the inhibition at 10 µM in the test on RAW264.7 amounted to 6%. In addition, the inhibition of growth at 10 µM in the test with HepG2 stood at 28%; in the test on SW480, 28%; with MCF7 it was 21%.

As to `COc1cc(O)ccc1/C=C/C(=O)c1ccc(O)cc1` [ECHINATIN], the inhibition was 16% in test [1], 75% in test [2] and 0% in the test listed under Homo sapiens. Besides, the inhibition at 10 µM with RAW264.7 turned out to be 26%. Moreover, the figures for the inhibition of growth at 10 µM in the test on HepG2, in the test on SW480 and in the test with MCF7 were 6%, 24% and 0%, respectively.

In the case of `CC(C)=CCc1c(O)ccc(C(=O)/C=C/c2ccc(O)c(O)c2)c1O`, the inhibition stood at 14% in test [1], 16% in test [2] and 14% in the test listed under Homo sapiens. Also, the inhibition at 10 µM in the test on RAW264.7 amounted to 11%. The figures for the inhibition of growth at 10 µM in the test with HepG2, in the test with SW480 and in the test on MCF7 were 1%, 11% and 12%, respectively.

For the compound `CC(C)=CCc1c(O)ccc(-c2coc3cc(O)ccc3c2=O)c1O`, the results for the inhibition (in test [1]; in test [2]; in the test filed under Homo sapiens) were 6%, 56% and 3%, respectively. For the same compound, in the test with RAW264.7, the inhibition at 10 µM came to 25%. Further, the inhibition of growth at 10 µM in the test with HepG2 turned out to be 11%; with SW480, 35%; in the test on MCF7 it was 36%.

`COc1ccc(-c2coc3c(O)c(O)c(CC=C(C)C)cc3c2=O)cc1`: the inhibition worked out at 7% in test [1], 74% in test [2] and 21% in the test filed under Homo sapiens. Also, the inhibition at 10 µM in the test with RAW264.7 came to 17%. Also, the inhibition of growth at 10 µM in the test on HepG2 worked out at 48%; in the test on SW480, 51%; with MCF7, 4%.

For `CC1(C)[C@@H](OC=O)CC[C@]2(C)[C@H]3C(=O)C=C4[C@@H]5C[C@@](C)(C(=O)O)CC[C@]5(C)CC[C@@]4(C)[C@]3(C)CC[C@@H]12`, the figures for the inhibition (in test [1]; in test [2]; in the test filed under Homo sapiens) were 0%, 3% and 0%, respectively. Also, in the test on RAW264.7, the inhibition at 10 µM was 2%. Besides, the inhibition of growth at 10 µM amounted to 13% with HepG2, 3% with SW480 and 17% in the test on MCF7.

On to `O=c1c(-c2ccc(O)c(O)c2)coc2cc(O)ccc12`, for which the values for the inhibition (in test [1]; in test [2]; in the test filed under Homo sapiens) were 9%, 28% and 0%, respectively. Further, the inhibition at 10 µM in the test on RAW264.7 came out at 0%. Further, the inhibition of growth at 10 µM in the test with HepG2 is 3%; with SW480, 43%; in the test on MCF7, 0%.

For `O=c1c(-c2ccc(O)cc2)coc2cc(O)cc(O)c12` [GENISTEIN], the figures for the inhibition (in test [1]; in test [2]; in the test listed under Homo sapiens) were 2%, 29% and 14%, respectively. Also, the inhibition at 10 µM in the test on RAW264.7 was found to be 13%. The inhibition of growth at 10 µM in the test with HepG2 turned out to be 29%; with SW480, 21%; in the test on MCF7, 6%.

Turning to `COc1ccc2c(c1)OC[C@H]1c3ccc(O)cc3O[C@@H]21`, the inhibition in test [1] came to 31%; in test [2] it was 2%; in the test listed under Homo sapiens it was 0%. In addition, in the test on RAW264.7, the inhibition at 10 µM came to 3%. Moreover, the inhibition of growth at 10 µM came to 5% in the test on HepG2, 17% with SW480 and 20% with MCF7.

As to `CC(C)=CCc1cc2c(=O)cc(-c3ccc4c(c3)C=CC(C)(C)O4)oc2cc1O`, the values for the inhibition (in test [1]; in test [2]; in the test filed under Homo sapiens) were 9%, 33% and 3%, respectively. In addition, in the test on RAW264.7, the inhibition at 10 µM is 1%. Also, the figures for the inhibition of growth at 10 µM in the test with HepG2, in the test on SW480 and with MCF7 were 11%, 51% and 7%, respectively.

In the case of `CC(C)=CCc1cc([C@@H]2CC(=O)c3ccc(O)cc3O2)cc2c1OC(C)(C)C=C2` [ABYSSINONES III], the inhibition in test [1] came out at 6%; in test [2] it was 43%; in the test listed under Homo sapiens, 28%. Besides, the inhibition at 10 µM in the test with RAW264.7 was 17%. Moreover, the inhibition of growth at 10 µM in the test on HepG2 was 9%; in the test on SW480, 26%; in the test with MCF7, 0%.

Consider `CC(C)=CCc1c(O)ccc2c1oc1c3ccc(O)cc3oc(=O)c21` [ISOSOJAGOL], for which the inhibition came out at 11% in test [1], 21% in test [2] and 28% in the test listed under Homo sapiens. In addition, the inhibition at 10 µM in the test on RAW264.7 turned out to be 15%. In addition, the inhibition of growth at 10 µM amounted to 23% in the test with HepG2, 26% with SW480 and 12% in the test on MCF7.

As to `CC1(C)C=Cc2cc(-c3coc4cc(O)ccc4c3=O)cc(O)c2O1`, the inhibition in test [1] came to 0%; in test [2], 0%; in the test filed under Homo sapiens it was 23%. The inhibition at 10 µM in the test on RAW264.7 is 22%. Further, the results for the inhibition of growth at 10 µM with HepG2, with SW480 and in the test with MCF7 were 14%, 5% and 0%, respectively.

Consider `CC1(C)C(=O)CC[C@]2(C)[C@H]3C(=O)C=C4[C@@H]5C[C@@](C)(C(=O)O)CC[C@]5(C)CC[C@@]4(C)[C@]3(C)[C@@H](O)C[C@@H]12`, for which the inhibition came out at 5% in test [1], 1% in test [2] and 28% in the test filed under Homo sapiens. Moreover, the inhibition at 10 µM with RAW264.7 came to 6%. Besides, the inhibition of growth at 10 µM in the test with HepG2 worked out at 1%; in the test on SW480 it was 48%; with MCF7, 25%.

As to `CC1(C)C=Cc2c(ccc(-c3coc4cc(O)ccc4c3=O)c2O)O1` [GLABRONE], the inhibition in test [1] worked out at 3%; in test [2], 69%; in the test listed under Homo sapiens it was 15%. For the same compound, in the test on RAW264.7, the inhibition at 10 µM is 5%. Also, the results for the inhibition of growth at 10 µM in the test on HepG2, in the test on SW480 and in the test with MCF7 were 16%, 50% and 12%, respectively.

For `COc1ccc(-c2coc3cc(O)ccc3c2=O)cc1` [FORMONONETIN], the figures for the inhibition (in test [1]; in test [2]; in the test filed under Homo sapiens) were 10%, 33% and 3%, respectively. Besides, the inhibition at 10 µM in the test on RAW264.7 was 0%. In addition, the inhibition of growth at 10 µM in the test on HepG2 stood at 0%; in the test on SW480, 4%; in the test on MCF7, 2%.

On to `COc1ccc(-c2coc3cc(O)ccc3c2=O)c(O)c1` [XENOGNOSIN B], for which the inhibition in test [1] was found to be 11%; in test [2] it was 47%; in the test filed under Homo sapiens, 4%. Besides, the inhibition at 10 µM with RAW264.7 is 1%. Moreover, the inhibition of growth at 10 µM with HepG2 stood at 0%; in the test with SW480, 13%; with MCF7, 1%.

Take `CC(C)=CCc1cc2c(=O)cc(-c3ccc(O)cc3)oc2cc1O` [LICOFLAVANONE A]: the inhibition in test [1] was determined as 17%; in test [2] it was 79%; in the test filed under Homo sapiens, 7%. The inhibition at 10 µM in the test with RAW264.7 stood at 11%. Further, the inhibition of growth at 10 µM in the test with HepG2 came to 5%; in the test on SW480, 30%; with MCF7, 0%.

Turning to `O=c1cc(-c2ccc(O)cc2)oc2cc(O)ccc12`, the results for the inhibition (in test [1]; in test [2]; in the test listed under Homo sapiens) were 11%, 55% and 0%, respectively. Further, the inhibition at 10 µM in the test with RAW264.7 came out at 5%. Besides, the inhibition of growth at 10 µM with HepG2 amounted to 18%; in the test with SW480 it was 22%; with MCF7, 11%.
